Measurements from patent US10556943B2, “HLA-DR binding peptides and their uses” (priority 2007, dated 2020).
Like-named read-outs stand apart in the source and are kept apart here.

Tests used:
purified HLA DRB1*0404 = molecular target: T1, purified HLA DRB1*0404 (Homo sapiens, UniProt P01903+P01911, A100R/A169T/F76Y/I96L/K127E/L162R/M171V/N62H/P40V/Q125Y/R42H/S133A/S149N/S66Y/V209L/W38E); test: HLA-DR radioligand binding inhibition assay, DRB1*0404
T1 construct: MHC molecules utilized were purified from EBV transformed homozygous cell lines or single MHC allele transfected 721.221, C1R, or fibroblast lines; made in house; host or cells: EBV transformed homozygous cell lines or single MHC allele transfected 721.221, C1R, or fibroblast lines
Method: (§1) Fifteen distinct HLA-DR molecules were used in quantitative assays to measure the binding of peptides to solubilized HLA-DR molecules. […] Briefly, columns of inactivated Sepharose CL4B and Protein A Sepharose were used as pre-columns. HLA-DR molecules were captured by passage of lysates over LB3.1 monoclonal antibody (anti-HLA-DRA) columns. Antibody columns were washed with 10 mM Tris-HCL, pH8.0 with 1% (v/v) NP-40, followed by PBS containing 0.4% (w/v) n-octylglucoside. […] The pH was reduced to 8.0 and the eluates were concentrated by centrifugation in Centriprep 30 concentrators at 2000 rpm (Amicon, Beverly, Mass.).
(§2) Briefly, 1-10 nM of radiolabeled peptide was co-incubated for 2 days at either room temperature or 37° C. with 1 μM to 1 nM purified HLA-DR molecules in the presence of a cocktail of protease inhibitors. Assays were performed at various pH conditions, ranging from pH 4 to pH 7. […] After incubation, the percentage of HLA-DR-bound radioactivity is determined by capturing HLA-DR/peptide complexes on Optiplates (Packard Instruments, Meriden, Conn.) coated with the LB3.1 antibody and determining bound counts per minute using the TopCount microscintillation counter (Packard Instruments). […] Competitor peptides are tested in 2-4 complete, independent experiments, at concentrations ranging from 30 μg/mL to 300 pg/mL.

purified HLA DRB4*0101 = molecular target: T2, purified HLA DRB4*0101 (Homo sapiens, UniProt P01903+P13762, G164S); test: HLA-DR radioligand binding inhibition assay, DRB4*0101
T2 construct: MHC molecules utilized were purified from EBV transformed homozygous cell lines or single MHC allele transfected 721.221, C1R, or fibroblast lines; made in house; host or cells: EBV transformed homozygous cell lines or single MHC allele transfected 721.221, C1R, or fibroblast lines
Method: as §1, §2

purified HLA DRB1*1101 = molecular target: T3, purified HLA DRB1*1101 (Homo sapiens, UniProt P01903+P01911, A100R/A169T/A87E/I96F/K41T/L162R/M171V/P40S/Q125H/Q178H/Q39Y/Q99D/R42S/S66Y/T262R/V115G/W38E); test: HLA-DR radioligand binding inhibition assay, DRB1*1101
T3 construct: MHC molecules utilized were purified from EBV transformed homozygous cell lines or single MHC allele transfected 721.221, C1R, or fibroblast lines; made in house; host or cells: EBV transformed homozygous cell lines or single MHC allele transfected 721.221, C1R, or fibroblast lines
Method: as §1, §2

purified HLA DRB1*0401 = molecular target: T4, purified HLA DRB1*0401 (Homo sapiens, UniProt P01903+P01911, A100K/A169T/F76Y/I96L/K127E/L162R/M171V/N62H/P40V/Q125Y/R42H/S133A/S149N/S66Y/V115G/V209L/W38E); test: HLA-DR radioligand binding inhibition assay, DRB1*0401
T4 construct: MHC molecules utilized were purified from EBV transformed homozygous cell lines or single MHC allele transfected 721.221, C1R, or fibroblast lines; made in house; host or cells: EBV transformed homozygous cell lines or single MHC allele transfected 721.221, C1R, or fibroblast lines
Method: as §1, §2

purified HLA DRB1*0101 = molecular target: T5, purified HLA DRB1*0101 (Homo sapiens, UniProt P01903+P01911, A100R/D57E/F55L/F60I/F76Y/I96L/L162R/M171V/P40L/Q125E/R42F/V115G/Y59C); test: HLA-DR radioligand binding inhibition assay, DRB1*0101; settings: read-out: IC50 to purified HLA DRB1*0101
T5 construct: MHC molecules utilized were purified from EBV transformed homozygous cell lines or single MHC allele transfected 721.221, C1R, or fibroblast lines; made in house; host or cells: EBV transformed homozygous cell lines or single MHC allele transfected 721.221, C1R, or fibroblast lines
Method: Fifteen distinct HLA-DR molecules were used in quantitative assays to measure the binding of peptides to solubilized HLA-DR molecules. […] Briefly, columns of inactivated Sepharose CL4B and Protein A Sepharose were used as pre-columns. HLA-DR molecules were captured by passage of lysates over LB3.1 monoclonal antibody (anti-HLA-DRA) columns. Antibody columns were washed with 10 mM Tris-HCL, pH8.0 with 1% (v/v) NP-40, followed by PBS containing 0.4% (w/v) n-octylglucoside.
Briefly, 1-10 nM of radiolabeled peptide was co-incubated for 2 days at either room temperature or 37° C. with 1 μM to 1 nM purified HLA-DR molecules in the presence of a cocktail of protease inhibitors. Assays were performed at various pH conditions, ranging from pH 4 to pH 7. […] After incubation, the percentage of HLA-DR-bound radioactivity is determined by capturing HLA-DR/peptide complexes on Optiplates (Packard Instruments, Meriden, Conn.) coated with the LB3.1 antibody and determining bound counts per minute using the TopCount microscintillation counter (Packard Instruments).

purified HLA DRB1*0405 = molecular target: T6, purified HLA DRB1*0405 (Homo sapiens, UniProt P01903+P01911, A100R/A169T/D86S/F76Y/I96L/K127E/L162R/M171V/N62H/P40V/Q125Y/R42H/S133A/S149N/S66Y/V115G/V209L/W38E); test: HLA-DR radioligand binding inhibition assay, DRB1*0405
T6 construct: MHC molecules utilized were purified from EBV transformed homozygous cell lines or single MHC allele transfected 721.221, C1R, or fibroblast lines; made in house; host or cells: EBV transformed homozygous cell lines or single MHC allele transfected 721.221, C1R, or fibroblast lines
Method: as §1, §2

purified HLA DRB5*0101 = molecular target: T7, purified HLA DRB5*0101 (Homo sapiens, UniProt P01903+Q30154); test: HLA-DR radioligand binding inhibition assay, DRB5*0101
T7 construct: MHC molecules utilized were purified from EBV transformed homozygous cell lines or single MHC allele transfected 721.221, C1R, or fibroblast lines; made in house; host or cells: EBV transformed homozygous cell lines or single MHC allele transfected 721.221, C1R, or fibroblast lines
Method: as §1, §2

[1] = read-out: IC50 to purified HLA DRB1*0404, purified HLA DRB1*0404

T3 sequence (P01903 26-254, other chains not shown): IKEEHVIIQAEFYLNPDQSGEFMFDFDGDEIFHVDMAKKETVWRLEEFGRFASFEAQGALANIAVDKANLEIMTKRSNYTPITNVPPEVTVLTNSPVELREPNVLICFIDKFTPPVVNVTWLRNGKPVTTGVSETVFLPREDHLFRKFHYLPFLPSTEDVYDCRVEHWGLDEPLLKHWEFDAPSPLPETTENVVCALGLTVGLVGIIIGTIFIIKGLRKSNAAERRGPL

CC[C@H](C)[C@H](NC(=O)CNC(=O)[C@H](CC(=O)O)NC(=O)[C@H](Cc1ccc(O)cc1)NC(=O)[C@@H]1CCCN1C(=O)[C@H](CCCCN)NC(=O)[C@H](C)N)C(=O)N1CCC[C@H]1C(=O)N[C@@H](C)C(=O)N[C@@H](CCCNC(=N)N)C(=O)N[C@@H](CCC(=O)O)C(=O)N[C@H](C(=O)N1CCC[C@H]1C(=O)N[C@@H](CC(=O)O)C(=O)N[C@@H](CC(C)C)C(=O)O)[C@@H](C)CC [Peptide 9019.0092]
IC50 (purified HLA DRB1*0404): > 20 µM
IC50 (purified HLA DRB4*0101): > 20 µM
IC50 (purified HLA DRB1*1101): > 20 µM
IC50 (purified HLA DRB1*0401): > 20 µM

CC[C@H](C)[C@H](N)C(=O)N[C@@H](CS)C(=O)N[C@H](C(=O)N[C@H](C(=O)N[C@@H](CC(=O)O)C(=O)N[C@H](C(=O)N[C@@H](Cc1ccc(O)cc1)C(=O)N[C@@H](CCSC)C(=O)N[C@H](C(=O)N[C@@H](CCSC)C(=O)N[C@H](C(=O)N[C@@H](CCCCN)C(=O)N[C@@H](CS)C(=O)N[C@@H](Cc1c[nH]c2ccccc12)C(=O)N[C@@H](CCSC)C(=O)O)C(C)C)[C@@H](C)CC)C(C)C)[C@@H](C)CC)[C@@H](C)O [Peptide 1622.04]
IC50 (purified HLA DRB1*0101): > 20 µM
IC50 (purified HLA DRB1*0404; [1]): > 20 µM

CSCC[C@H](NC(=O)[C@H](CCCNC(=N)N)NC(=O)[C@H](C)NC(=O)CN)C(=O)N1CCC[C@H]1C(=O)N[C@@H](CS)C(=O)N[C@@H](C)C(=O)N[C@@H](CCC(=O)O)C(=O)N[C@@H](CC(C)C)C(=O)N[C@H](C(=O)N[C@@H](CCCNC(=N)N)C(=O)N[C@@H](CCC(=O)O)C(=O)N1CCC[C@H]1C(=O)NCC(=O)N[C@@H](CS)C(=O)O)C(C)C [Peptide 9019.0181]
IC50 (purified HLA DRB1*0404; [1]): 13.1 µM
IC50 (purified HLA DRB1*0405; read-out: IC50 to purified HLA DRB1*0405, purified HLA DRB1*0405): > 20 µM

CC[C@H](C)[C@H](NC(=O)[C@@H](NC(=O)[C@H](Cc1ccc(O)cc1)NC(=O)CN)C(C)C)C(=O)NCC(=O)N[C@H](C(=O)N[C@@H](CCC(N)=O)C(=O)N[C@@H](CCC(N)=O)C(=O)N[C@@H](C)C(=O)N[C@H](C(=O)N1CCC[C@H]1C(=O)NCC(=O)N1CCC[C@H]1C(=O)N[C@@H](C)C(=O)N[C@@H](Cc1ccc(O)cc1)C(=O)O)[C@@H](C)O)[C@@H](C)O [Peptide 9019.0110]
IC50 (purified HLA DRB5*0101): 10.2 µM

CC(C)C[C@H](NC(=O)[C@H](CC(=O)O)NC(=O)[C@H](CCCNC(=N)N)NC(=O)[C@@H](N)Cc1c[nH]cn1)C(=O)N[C@@H](C)C(=O)N[C@@H](C)C(=O)N[C@@H](CCCNC(=N)N)C(=O)N[C@@H](CC(N)=O)C(=O)N[C@H](C(=O)N[C@@H](CC(C)C)C(=O)N[C@H](C(=O)N[C@@H](CCCCN)C(=O)N[C@@H](CO)C(=O)N1CCC[C@H]1C(=O)N[C@@H](CC(N)=O)C(=O)O)C(C)C)C(C)C [Peptide 9019.0085]
IC50 (purified HLA DRB1*0405): 11.2 µM

CC(C)C[C@H](NC(=O)[C@@H](NC(=O)[C@H](CS)NC(=O)[C@H](CO)NC(=O)CNC(=O)[C@@H](NC(=O)[C@H](CC(=O)O)NC(=O)[C@@H](NC(=O)[C@@H](N)CO)[C@@H](C)O)C(C)C)[C@@H](C)O)C(=O)N[C@H](C(=O)N[C@@H](CS)C(=O)N1CCC[C@H]1C(=O)N[C@@H](CC(C)C)C(=O)N[C@@H](Cc1c[nH]cn1)C(=O)N[C@@H](CC(N)=O)C(=O)O)C(C)C [Peptide 9019.0043]
IC50 (purified HLA DRB1*0401; read-out: IC50 to purified HLA DRB1*0401, purified HLA DRB1*0401): > 20 µM
